Measurements taken from PMC9599461, “Stereoselectivity in the Membrane Transport of Phenylethylamine Derivatives by Human Monoamine Transporters and Organic Cation Transporters 1, 2, and 3” (Biomolecules, 2022).

What was measured:
OCT3 = molecular target: T1, OCT3 (Homo sapiens, UniProt O75751); assay: Stereoselective uptake into OCT3-overexpressing HEK293 cells; conditions: for Clint ± SEM / Stereoselectivity Vmax: OCT3; for Clint ± SEM: quotient of vmax over Km; for Stereoselectivity Vmax: ratio between enantiomers, given as for (S) or for 2; for selectivity ratio at 2 min: human, HEK293 cells stably overexpressing human OCT3;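 as to all read-outs here: intracellular accumulation in HEK293 cells measured by chiral HPLC-MS/MS after a 2 min substrate exposure at 37 °C, uptake normalized to total protein (bicinchoninic acid assay)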
T1 sequence (O75751 1-556): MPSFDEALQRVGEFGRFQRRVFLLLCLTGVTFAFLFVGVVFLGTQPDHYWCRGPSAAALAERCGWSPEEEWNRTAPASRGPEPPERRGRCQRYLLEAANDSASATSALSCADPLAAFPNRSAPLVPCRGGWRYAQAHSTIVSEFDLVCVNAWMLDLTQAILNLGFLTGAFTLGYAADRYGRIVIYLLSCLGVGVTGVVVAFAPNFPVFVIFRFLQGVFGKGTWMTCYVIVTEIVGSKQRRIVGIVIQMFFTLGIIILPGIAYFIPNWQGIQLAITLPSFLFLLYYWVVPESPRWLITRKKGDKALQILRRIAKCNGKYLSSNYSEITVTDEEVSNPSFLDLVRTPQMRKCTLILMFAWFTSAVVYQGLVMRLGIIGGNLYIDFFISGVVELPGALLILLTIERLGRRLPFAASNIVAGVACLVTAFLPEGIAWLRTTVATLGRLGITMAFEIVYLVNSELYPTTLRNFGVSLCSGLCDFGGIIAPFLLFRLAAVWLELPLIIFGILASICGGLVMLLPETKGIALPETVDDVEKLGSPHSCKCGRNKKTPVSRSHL

SERT = SERT (Homo sapiens, UniProt P31645); assay: Stereoselective uptake into SERT-overexpressing HEK293 cells; conditions: for Clint ± SEM / Stereoselectivity Vmax / Stereoselectivity Km: SERT; for Clint ± SEM: quotient of vmax over Km; for Stereoselectivity Vmax / Stereoselectivity Km: ratio between enantiomers; for Stereoselectivity Vmax: given as for (R) or for 1; for Stereoselectivity Km: given as for (R) or for 1 (first-eluting); for selectivity ratio at 2 min: human, HEK293 cells stably overexpressing human SERT;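 as to all read-outs here: uptake into HEK293 cells stably expressing human SERT over 2 min, enantiomers measured in cell lysate by chiral HPLC-MS/MS, normalized to total protein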
OCT1 = molecular target: T2, OCT1 (Homo sapiens, UniProt O15245); assay: Stereoselective uptake into OCT1-overexpressing HEK293 cells; conditions: OCT1; for Clint ± SEM: quotient of vmax over Km; for selectivity ratio at 2 min: human, ratio between enantiomers;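 as to all read-outs here: enantiomers quantified inside cells by chiral HPLC-MS/MS, uptake normalized to total protein from bicinchoninic acid assay, substrates applied in HBSS+ buffer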
T2 sequence (O15245 1-554): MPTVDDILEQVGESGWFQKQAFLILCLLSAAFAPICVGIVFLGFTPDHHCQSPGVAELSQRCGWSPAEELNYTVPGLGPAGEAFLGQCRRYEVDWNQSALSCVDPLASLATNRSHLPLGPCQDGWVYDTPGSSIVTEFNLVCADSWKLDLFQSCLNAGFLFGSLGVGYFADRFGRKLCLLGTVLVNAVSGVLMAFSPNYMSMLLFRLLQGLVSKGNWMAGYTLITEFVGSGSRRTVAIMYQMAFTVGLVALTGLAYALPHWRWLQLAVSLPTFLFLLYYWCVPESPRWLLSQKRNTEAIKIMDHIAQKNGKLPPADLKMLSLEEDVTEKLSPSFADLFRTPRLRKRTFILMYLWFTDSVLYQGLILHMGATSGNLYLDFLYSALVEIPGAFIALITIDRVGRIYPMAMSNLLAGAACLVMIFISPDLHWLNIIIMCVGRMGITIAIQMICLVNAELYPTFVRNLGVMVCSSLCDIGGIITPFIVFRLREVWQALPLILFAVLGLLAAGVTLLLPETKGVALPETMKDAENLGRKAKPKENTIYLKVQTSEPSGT
Procedure: (§1) All transport experiments were carried out in HEK293 cells stably overexpressing human MATs or OCTs. […] All cells were regularly cultivated in DMEM supplemented with 10% (v/v) FCS, penicillin (100 U/mL) and streptomycin (100 μg/mL)and kept in culture for no longer than 30 passages.
(§2) For the uptake experiments, 300,000 cells were plated in poly-D-lysine precoated 24-well plates 48 h ahead of the transport experiment. On the day of experiment, cells were initially washed once with 37 °C pre-warmed HBSS+ (Hanks buffered salt solution supplemented with 10 mM HEPES) and subsequently incubated with the substrates dissolved in pre-warmed HBSS+ for exactly two minutes. Incubation was stopped by adding ice-cold HBSS+ followed by two washing steps. After this, cells were lysed with 80% acetonitrile containing 10 ng/mL milnacipran as internal standard for high-performance liquid chromatography coupled to tandem mass spectrometry (HPLC-MS/MS) analysis. For every experiment, two additional wells per cell line were lysed using RIPA buffer for protein quantification. Total protein was quantified using the bicinchoninic acid assay [42]. This was later used for normalization of the uptake data.
(§3) Intracellularly accumulated test substances were quantified by HPLC-MS/MS analysis using a Shimadzu Nexera HPLC system with a SIL-30AC autosampler, a CTO-20AC column oven, a LC-30AD pump, and a CBM-20A controller (Shimadzu, Kyoto, Japan). Stereoselective chromatography was carried out on a [sequence] CBH HPLC column (100 × 3 mm inner dimension with 5 μM particle size; Sigma-Aldrich, Darmstadt, Germany) with a corresponding 10 × 3 mm guard column. Reversed phased chromatography was carried out using an ammonium acetate (NH4Ac) buffered aqueous mobile phase with isopropyl alcohol (IPA) as organic solvent. […] The order of elution of the enantiomers was obtained from available reference literature [43] or by applying enantiopure reference compounds to the chiral HPLC. […] Given the structural similarity of the investigated substances and the fact that separation was performed on the same column with almost identical mobile phases, we assume that this order of elution for our compound set is always the (R)- before the (S)-enantiomer.
(§4) Detection was performed with an API 4000 tandem mass spectrometer (AB SCIEX, Darmstadt, Germany) operating in multiple-reaction-monitoring mode. Quantification was performed using the Analyst 1.6.2 software (AB SCIEX, Darmstadt, Germany) and quantified by comparison to standard curves with known concentrations.
(§5) All uptake data were normalized to protein content to account for variation in the number of seeded sells. Transporter-mediated net uptake was calculated by subtracting uptake into empty vector-transfected control cells from uptake into transporter-transfected cells. Kinetic parameters were then determined after non-linear regression following the Michaelis–Menten equation (v = vmax × [S]/(Km + [S])) using GraphPad Prism (Version 5.01 for Windows, GraphPad Software, La Jolla, CA, USA). Vmax refers to the maximum transport velocity and Km is defined as the substance concentration required to reach half of vmax. The intrinsic clearance Clint was calculated as the quotient of vmax over Km.

NET = NET (Homo sapiens, UniProt P23975); assay: Stereoselective uptake into NET-overexpressing HEK293 cells; conditions: for Clint ± SEM / Stereoselectivity Vmax / Stereoselectivity Km: NET; for Clint ± SEM: quotient of vmax over Km; for Stereoselectivity Vmax / Stereoselectivity Km: ratio between enantiomers; for Stereoselectivity Vmax: given as for (R) or for 1; for Stereoselectivity Km: given as for (R) or for 1 (first-eluting); for selectivity ratio at 2 min: human, HEK293 cells stably overexpressing human NET;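 as to all read-outs here: intracellular enantiomers quantified in cell lysates by chiral HPLC-MS/MS after a 2 min substrate incubation, with uptake normalized to total cellular protein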
Procedure: as §1, §2, §3, §4, §5

OCT2 = molecular target: T3, OCT2 (Homo sapiens, UniProt O15244); assay: Stereoselective uptake into OCT2 (wild-type)-overexpressing HEK293 cells; conditions: OCT2; for Clint ± SEM: quotient of vmax over Km; for selectivity ratio at 2 min: human, ratio between enantiomers
T3 sequence (O15244 1-555 S270A): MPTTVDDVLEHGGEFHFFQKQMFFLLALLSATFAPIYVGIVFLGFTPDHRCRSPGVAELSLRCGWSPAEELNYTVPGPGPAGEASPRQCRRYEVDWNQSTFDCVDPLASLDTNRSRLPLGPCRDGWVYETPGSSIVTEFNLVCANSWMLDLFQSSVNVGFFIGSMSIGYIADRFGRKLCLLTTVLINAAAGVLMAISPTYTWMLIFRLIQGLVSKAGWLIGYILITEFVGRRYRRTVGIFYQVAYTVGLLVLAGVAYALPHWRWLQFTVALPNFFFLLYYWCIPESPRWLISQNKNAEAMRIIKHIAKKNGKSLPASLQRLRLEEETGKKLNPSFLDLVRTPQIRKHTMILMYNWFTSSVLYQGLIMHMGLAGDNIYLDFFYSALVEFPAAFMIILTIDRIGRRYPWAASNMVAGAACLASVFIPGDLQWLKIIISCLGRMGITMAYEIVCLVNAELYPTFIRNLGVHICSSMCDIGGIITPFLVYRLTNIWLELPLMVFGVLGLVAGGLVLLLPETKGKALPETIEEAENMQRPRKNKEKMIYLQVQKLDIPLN
Procedure: as §1, §2
Intracellularly accumulated test substances were quantified by HPLC-MS/MS analysis using a Shimadzu Nexera HPLC system with a SIL-30AC autosampler, a CTO-20AC column oven, a LC-30AD pump, and a CBM-20A controller (Shimadzu, Kyoto, Japan). Stereoselective chromatography was carried out on a [sequence] CBH HPLC column (100 × 3 mm inner dimension with 5 μM particle size; Sigma-Aldrich, Darmstadt, Germany) with a corresponding 10 × 3 mm guard column. Reversed phased chromatography was carried out using an ammonium acetate (NH4Ac) buffered aqueous mobile phase with isopropyl alcohol (IPA) as organic solvent. […] The order of elution of the enantiomers was obtained from available reference literature [43] or by applying enantiopure reference compounds to the chiral HPLC. […] However, in every other case where the order of elution was available, the (R)-enantiomer eluted first. Given the structural similarity of the investigated substances and the fact that separation was performed on the same column with almost identical mobile phases, we assume that this order of elution for our compound set is always the (R)- before the (S)-enantiomer.
as §4, §5
HEK293 cells stably overexpressing wild-type or mutant OCT2 were incubated with 100 μM racemic substance for two minutes.

[1] = tested on: OCT2 wild-type versus A270S variant; assay: Stereoselective uptake into OCT2 A270S variant-overexpressing HEK293 cells; conditions: human;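 also: uptake into HEK293 cells stably overexpressing human OCT2 variants, intracellular enantiomers quantified by chiral HPLC-MS/MS and normalized to total protein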
DAT = DAT (Homo sapiens, UniProt Q01959); assay: Stereoselective uptake into DAT-overexpressing HEK293 cells; conditions: for Clint ± SEM / Stereoselectivity Vmax / Stereoselectivity Km: DAT; for Clint ± SEM: quotient of vmax over Km; for Stereoselectivity Vmax / Stereoselectivity Km: ratio between enantiomers; for Stereoselectivity Vmax: given as for (R) or for 1; for Stereoselectivity Km: given as for (R) or for 1 (first-eluting); for selectivity ratio at 2 min: human, HEK293 cells stably overexpressing human DAT;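 as to all read-outs here: intracellular accumulation measured by chiral HPLC-MS/MS in stably transfected HEK293 cells, normalized to total protein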
[2] = HEK293 cells stably overexpressing human OCT1, Stereoselectivity ClInt, given as for (R) or for 1 (also 1.00-fold for 1/2)
[3] = HEK293 cells stably overexpressing human OCT1, Stereoselectivity Km, given as for (R) or for 1 (first-eluting)
[4] = HEK293 cells stably overexpressing human OCT1, Stereoselectivity Vmax, given as for (R) or for 1
[5] = HEK293 cells stably overexpressing human wild-type OCT2, Stereoselectivity ClInt, given as for (R) or for 1
[6] = HEK293 cells stably overexpressing human wild-type OCT2, Stereoselectivity Km, given as for (R) or for 1 (first-eluting)
[7] = HEK293 cells stably overexpressing human wild-type OCT2, Stereoselectivity Vmax, given as for (R) or for 1

Sequence of NET (P23975 whole entry): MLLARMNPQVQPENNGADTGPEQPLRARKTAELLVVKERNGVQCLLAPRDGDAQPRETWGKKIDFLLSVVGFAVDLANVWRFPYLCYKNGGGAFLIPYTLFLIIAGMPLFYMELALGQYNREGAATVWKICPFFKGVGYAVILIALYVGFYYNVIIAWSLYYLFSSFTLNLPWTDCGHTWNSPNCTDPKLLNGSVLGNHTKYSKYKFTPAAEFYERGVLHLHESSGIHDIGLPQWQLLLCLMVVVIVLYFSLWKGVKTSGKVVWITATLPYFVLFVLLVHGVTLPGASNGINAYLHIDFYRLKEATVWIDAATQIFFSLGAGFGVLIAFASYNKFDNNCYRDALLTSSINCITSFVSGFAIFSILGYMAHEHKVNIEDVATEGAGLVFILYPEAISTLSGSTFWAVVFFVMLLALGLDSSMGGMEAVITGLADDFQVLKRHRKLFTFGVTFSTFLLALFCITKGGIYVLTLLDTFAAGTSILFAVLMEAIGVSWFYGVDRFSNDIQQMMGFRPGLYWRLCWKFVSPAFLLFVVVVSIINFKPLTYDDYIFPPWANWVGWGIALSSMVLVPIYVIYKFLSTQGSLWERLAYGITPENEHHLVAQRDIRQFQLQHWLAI
Sequence of SERT (P31645 whole entry): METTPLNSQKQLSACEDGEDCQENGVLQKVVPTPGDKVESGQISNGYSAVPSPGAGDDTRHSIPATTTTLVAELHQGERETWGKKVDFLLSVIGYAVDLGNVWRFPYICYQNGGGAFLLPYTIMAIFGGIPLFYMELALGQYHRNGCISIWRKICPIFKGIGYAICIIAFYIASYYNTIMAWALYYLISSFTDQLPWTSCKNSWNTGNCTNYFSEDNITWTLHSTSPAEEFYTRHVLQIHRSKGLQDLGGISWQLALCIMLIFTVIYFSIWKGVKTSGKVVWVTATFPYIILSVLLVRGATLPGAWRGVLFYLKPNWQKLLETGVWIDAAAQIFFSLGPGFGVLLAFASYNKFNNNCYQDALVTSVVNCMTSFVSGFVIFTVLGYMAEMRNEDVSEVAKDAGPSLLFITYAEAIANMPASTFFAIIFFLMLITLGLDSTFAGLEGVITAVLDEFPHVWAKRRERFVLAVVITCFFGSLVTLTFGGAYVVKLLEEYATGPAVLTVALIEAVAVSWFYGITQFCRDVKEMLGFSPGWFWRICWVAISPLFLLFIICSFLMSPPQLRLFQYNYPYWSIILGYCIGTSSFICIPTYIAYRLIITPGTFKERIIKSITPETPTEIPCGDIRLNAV
Sequence of DAT (Q01959 whole entry): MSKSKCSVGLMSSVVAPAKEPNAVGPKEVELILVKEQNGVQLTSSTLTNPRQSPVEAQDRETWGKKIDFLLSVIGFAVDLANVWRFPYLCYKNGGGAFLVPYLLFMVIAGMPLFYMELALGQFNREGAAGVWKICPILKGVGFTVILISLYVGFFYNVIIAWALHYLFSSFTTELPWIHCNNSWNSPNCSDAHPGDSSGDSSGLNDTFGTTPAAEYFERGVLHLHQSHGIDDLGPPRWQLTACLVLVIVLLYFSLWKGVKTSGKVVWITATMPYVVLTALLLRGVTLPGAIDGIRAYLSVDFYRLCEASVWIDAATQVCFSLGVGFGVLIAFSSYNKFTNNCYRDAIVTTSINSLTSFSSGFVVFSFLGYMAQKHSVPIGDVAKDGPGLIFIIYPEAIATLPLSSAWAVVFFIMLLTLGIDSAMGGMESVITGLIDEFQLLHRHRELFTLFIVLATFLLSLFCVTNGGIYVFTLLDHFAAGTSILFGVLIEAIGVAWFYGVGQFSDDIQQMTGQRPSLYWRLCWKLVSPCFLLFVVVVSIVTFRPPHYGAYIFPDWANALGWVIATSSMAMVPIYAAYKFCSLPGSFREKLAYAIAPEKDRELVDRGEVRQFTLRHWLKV

Row | Clint ± SEM (OCT3) | Stereoselectivity Vmax (OCT3) [fold] | Clint ± SEM (SERT) | Stereoselectivity Vmax (SERT) [fold] | Stereoselectivity Km (SERT) [fold] | Clint ± SEM (OCT1) | Clint ± SEM (NET) | Stereoselectivity Vmax (NET) [fold] | Stereoselectivity Km (NET) [fold] | Clint ± SEM (OCT2) | SMILES | selectivity ratio at 2 min (OCT3) | selectivity ratio at 2 min (SERT) | selectivity ratio at 2 min (OCT1; [2]) | selectivity ratio at 2 min (OCT1; [3]) | selectivity ratio at 2 min (OCT1; [4]) | selectivity ratio at 2 min (NET) | selectivity ratio at 2 min (OCT2; [5]) | selectivity ratio at 2 min (OCT2; [6]) | selectivity ratio at 2 min (OCT2; [7]) | selectivity ratio at 2 min, 100 μM [1] | other results
1 | 53.4 mL × g Protein^−1 × min^−1 | 1.10 | 2.42 mL × g Protein^−1 × min^−1 | 2.38 | 1.39 | 4.32 mL × g Protein^−1 × min^−1 | 198 mL × g Protein^−1 × min^−1 | 1.30 | 1.55 | 30.2 mL × g Protein^−1 × min^−1 | NC[C@@H](O)c1ccc(O)cc1 [(S)-Octopamine] | 1.38 | 1.71 | 1.05 | 1.04 | 1.09 | 1.19 | 1.31 | 1.63 | 2.14 | 1.17 | Clint ± SEM (DAT): 100 mL × g Protein^−1 × min^−1; Stereoselectivity Vmax (DAT): 1.05 fold; Stereoselectivity Km (DAT): 1.05 fold; selectivity ratio at 2 min (DAT): 1
2 | 38.8 mL × g Protein^−1 × min^−1 | 1.10 | 4.14 mL × g Protein^−1 × min^−1 | 2.38 | 1.39 | 4.53 mL × g Protein^−1 × min^−1 | 166 mL × g Protein^−1 × min^−1 | 1.30 | 1.55 | 39.6 mL × g Protein^−1 × min^−1 | NC[C@H](O)c1ccc(O)cc1 [(R)-Octopamine] | 1.38 | 1.71 | 1.05 | 1.04 | 1.09 | 1.19 | 1.31 | 1.63 | 2.14 | 1.2 | Clint ± SEM (DAT): 100 mL × g Protein^−1 × min^−1; Stereoselectivity Vmax (DAT): 1.05 fold; Stereoselectivity Km (DAT): 1.05 fold; selectivity ratio at 2 min (DAT): 1
